Where “and” joins values, the source holds several entries; their conditions need not be identical. Identical values can stand only once. Counter-ions that a name gives are not always drawn. Like-named read-outs stand apart in the source and are kept apart here.
Target: Nav1.7 sodium channels (human SCN9A gene) (Homo sapiens (Human), UniProt Q15858)
Test: Automated patch clamp (IonWorks Barracuda) of Nav1.7 stably expressed in CHO cells
Format: cell-based
Method: The potencies of the compounds provided herein to block specific Na+ channels was measured using automated patch clamp electrophysiologically of Nav1.7 sodium channels (human SCN9A gene) stably expressed in CHO cells using the IonWorks™ Barracuda system. Currents were measured from the whole cell patch configuration. From a holding potential of −90 mV, membranes were subjected to a 200 ms pre-pulse to −120 mV, then pulsed to 0 mV to measure blockade of the tonic (resting) state. Inactivated state block was elicited by repolarization to −100 mV (20 ms pulse duration), followed by depolarization to 0 mV (20 ms pulse duration). Peak inward Na+ currents were measured in the presence of vehicle or various concentrations of the test compound to determine the percent block of current. Concentration-response relationships were used to calculate IC50 values for the illustrative compounds.

[1] = inactivated state block, CHO cells, read-out: Inactivated state IC50
[2] = tonic (resting) state block, CHO cells, read-out: Tonic state IC50
[3] = read-out: Inactivated state IC50

Nav1.7 sodium channels (human SCN9A gene), sequence (Q15858 whole entry): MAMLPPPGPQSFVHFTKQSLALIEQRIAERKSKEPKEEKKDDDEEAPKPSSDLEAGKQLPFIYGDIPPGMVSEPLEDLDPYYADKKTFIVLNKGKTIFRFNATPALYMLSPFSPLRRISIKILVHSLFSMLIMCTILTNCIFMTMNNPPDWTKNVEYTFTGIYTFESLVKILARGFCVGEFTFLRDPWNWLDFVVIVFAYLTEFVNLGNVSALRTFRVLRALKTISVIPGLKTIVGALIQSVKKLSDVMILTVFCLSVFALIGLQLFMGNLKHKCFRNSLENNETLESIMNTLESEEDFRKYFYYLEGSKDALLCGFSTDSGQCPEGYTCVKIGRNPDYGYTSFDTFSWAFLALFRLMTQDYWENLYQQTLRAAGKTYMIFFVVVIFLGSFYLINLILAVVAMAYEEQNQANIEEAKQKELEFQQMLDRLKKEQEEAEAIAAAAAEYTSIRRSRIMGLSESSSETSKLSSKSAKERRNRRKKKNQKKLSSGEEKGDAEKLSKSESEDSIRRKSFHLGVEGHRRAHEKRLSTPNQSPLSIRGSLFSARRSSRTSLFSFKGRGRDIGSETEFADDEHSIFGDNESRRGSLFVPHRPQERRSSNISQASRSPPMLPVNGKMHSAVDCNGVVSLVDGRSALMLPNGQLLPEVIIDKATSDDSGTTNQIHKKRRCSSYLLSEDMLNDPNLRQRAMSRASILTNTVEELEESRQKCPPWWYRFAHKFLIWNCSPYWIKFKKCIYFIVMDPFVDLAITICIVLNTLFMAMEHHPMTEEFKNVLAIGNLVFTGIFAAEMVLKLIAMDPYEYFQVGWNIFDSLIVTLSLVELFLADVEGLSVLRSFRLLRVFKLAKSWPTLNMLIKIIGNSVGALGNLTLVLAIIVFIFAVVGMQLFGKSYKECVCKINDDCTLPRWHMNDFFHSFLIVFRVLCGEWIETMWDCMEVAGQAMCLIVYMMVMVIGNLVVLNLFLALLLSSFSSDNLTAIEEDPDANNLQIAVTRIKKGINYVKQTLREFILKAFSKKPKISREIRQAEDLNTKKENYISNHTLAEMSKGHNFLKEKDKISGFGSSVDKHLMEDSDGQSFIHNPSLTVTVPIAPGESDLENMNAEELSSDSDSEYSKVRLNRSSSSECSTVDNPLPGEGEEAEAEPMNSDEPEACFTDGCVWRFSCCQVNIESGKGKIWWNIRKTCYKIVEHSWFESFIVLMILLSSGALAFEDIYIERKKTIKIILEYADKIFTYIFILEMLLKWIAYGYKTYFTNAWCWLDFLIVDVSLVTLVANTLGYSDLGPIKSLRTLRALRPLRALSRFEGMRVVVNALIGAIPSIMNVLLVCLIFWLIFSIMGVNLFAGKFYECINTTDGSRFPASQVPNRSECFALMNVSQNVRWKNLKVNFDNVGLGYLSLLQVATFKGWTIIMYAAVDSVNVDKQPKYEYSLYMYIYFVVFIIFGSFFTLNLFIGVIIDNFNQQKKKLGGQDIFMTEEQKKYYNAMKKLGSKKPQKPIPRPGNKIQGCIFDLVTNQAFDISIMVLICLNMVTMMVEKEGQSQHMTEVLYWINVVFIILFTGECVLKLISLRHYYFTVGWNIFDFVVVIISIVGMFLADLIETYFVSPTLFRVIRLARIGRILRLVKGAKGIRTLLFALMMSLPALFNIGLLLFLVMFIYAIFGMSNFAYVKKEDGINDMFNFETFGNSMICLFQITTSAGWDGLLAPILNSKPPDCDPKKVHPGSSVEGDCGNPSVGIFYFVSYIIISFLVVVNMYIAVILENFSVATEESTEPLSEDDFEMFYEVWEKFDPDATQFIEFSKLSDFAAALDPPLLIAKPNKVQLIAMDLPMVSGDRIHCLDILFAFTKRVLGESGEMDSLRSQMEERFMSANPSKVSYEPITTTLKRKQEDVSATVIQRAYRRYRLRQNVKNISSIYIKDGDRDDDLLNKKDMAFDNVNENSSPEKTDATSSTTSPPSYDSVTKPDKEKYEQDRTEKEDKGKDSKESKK

Row | SMILES | IC50 [1] | IC50 [2] | IC50 [3] | IC50 (read-out: Tonic state IC50)
1 | Nc1nc(NC(CO)CO)nnc1-c1cccc(Cl)c1Cl [Compound 20, 2-((5-Amino-6-(2,3-dichlorophenyl)-1,2,4-triazin-3-yl)amino)propane-1,3-diol] | > 300 µM | > 200 µM | – | –
2 | Nc1nc(N2CCN(C[C@H](O)COCC3CCC3)CC2)nnc1-c1cccc(Cl)c1Cl [Compound 80, (2S)-1-{4-[5-Amino-6-(2,3-dichlorophenyl)-1,2,4-triazin-3-yl]piperazin-1-yl}-3-(cyclobutylmethoxy)propan-2-ol] | < 50 µM | 70 µM | – | –
3 | Nc1nc(N2CCN(C[C@H](O)COCC3CC3)CC2)nnc1-c1cccc(Cl)c1Cl [Compound 83, (2S)-1-{4-[5-Amino-6-(2,3-dichlorophenyl)-1,2,4-triazin-3-yl]piperazin-1-yl}-3-(cyclopropylmethoxy)propan-2-ol] | < 50 µM | 171 µM | – | –
4 | Nc1nc(N2CCN(C[C@H](O)COC3CCC3)CC2)nnc1-c1cccc(Cl)c1Cl [Compound 84, (2S)-1-{4-[5-Amino-6-(2,3-dichlorophenyl)-1,2,4-triazin-3-yl]piperazin-1-yl}-3-(cyclobutyloxy)propan-2-ol] | < 50 µM | 192 µM | – | –
5 | Nc1nc(N2CCN(CC(F)(F)F)CC2)nnc1-c1cccc(Cl)c1Cl [Compound 87, 6-(2,3-dichlorophenyl)-3-(4-(2,2,2-trifluoroethyl)piperazin-1-yl)-1,2,4-triazin-5-amine] | < 50 µM | > 200 µM | – | –
6 | Nc1nc(N2CCN(CCOC(F)(F)F)CC2)nnc1-c1cccc(Cl)c1Cl [Compound 88, 6-(2,3-dichlorophenyl)-3-(4-(2-(trifluoromethoxy)ethyl)piperazin-1-yl)-1,2,4-triazin-5-amine] | < 50 µM | 113 µM | – | –
7 | CC(CS(=O)(=O)CCO)Nc1nnc(-c2cccc(Cl)c2Cl)c(N)n1 (centres unmarked) [Compound 93, 2-((2-((5-amino-6-(2,3-dichlorophenyl)-1,2,4-triazin-3-yl)amino)propyl)sulfonyl)ethanol] | > 300 µM | > 200 µM | – | –
8 | COCCOCCOCCN1CCN(c2nnc(-c3cc(F)cc(Cl)c3Cl)c(N)n2)CC1 [Compound 104, 3-N-(4′-N-mPEG3-piperazinyl) 5-fluoro lamotrigine] | < 50 µM | > 200 µM | – | –
9 | COCCOCCOCC(=O)N1CCN(c2nnc(-c3cccc(Cl)c3Cl)c(N)n2)CC1 [Compound 105, 3-N-mPEG2-CM-piperazinyl lamotrigine] | > 300 µM | > 200 µM | – | –
10 | COCCOCCOCC(=O)N1CCC(Nc2nnc(-c3cccc(Cl)c3Cl)c(N)n2)CC1 [Compound 107, 3-N-(4′-N-mPEG2-CM piperidinyl) lamotrigine] | > 300 µM | > 200 µM | – | –
11 | COCCOCCOCCN1CCC(Nc2nnc(-c3cccc(Cl)c3Cl)c(N)n2)CC1 [Compound 108, 3-N-(1-N-mPEG3-piperidin-4-yl) lamotrigine] | 185 µM | > 200 µM | – | –
12 | COCCOCCOCCN1C(C)CN(c2nnc(-c3cccc(Cl)c3Cl)c(N)n2)CC1C (centres unmarked) [Compound 111, 3-N-(4-N-mPEG3-3,5-dimethylpiperazinyl) lamotrigine] | < 50 µM | > 200 µM | – | –
13 | Nc1nc(N2CCN[C@@H](CO)C2)nnc1-c1cccc(Cl)c1Cl [Compound 122, (R)-5-amino-3-N-[3-(hydroxymethyl)piperazin-1-yl] lamotrigine diHCl] | > 150 µM | > 150 µM | – | –
14 | Nc1nc(N2CCN3CCOC[C@@H]3C2)nnc1-c1cccc(Cl)c1Cl [Compound 131, (S)-6-(2,3-dichlorophenyl)-3-(hexahydropyrazino[2,1-c][1,4]oxazin-8(1H)-yl)-1,2,4-triazin-5-amine di HCl salt] | – | – | 187 µM | > 200 µM
15 | Nc1nc(NC2CNC2)nnc1-c1cccc(Cl)c1Cl [Compound 132, 3-N-(azetidin-3-yl) lamatrogine 2HCl salt] | > 300 µM | > 200 µM | – | –
16 | COC[C@@H](O)CN1CCN(c2nnc(-c3cccc(Cl)c3Cl)c(N)n2)C[C@H]1CO [Compound 134, (S)-1-((S)-4-(5-amino-6-(2,3-dichlorophenyl)-1,2,4-triazin-3-yl)-2-(hydroxymethyl)piperazin-1-yl)-3-methoxypropan-2-ol] | > 300 µM and 225 µM | > 200 µM | – | –
17 | Nc1nc(N2CCNC[C@H]2CO)nnc1-c1cccc(Cl)c1Cl [Compound 135] | > 300 µM | > 200 µM | – | –

Row | SMILES | IC50 [1] | IC50 [2] | IC50 [3] | IC50 (read-out: Tonic state IC50)
18 | CC(C)(C)OCC(O)CN1CCN(c2nnc(-c3cccc(Cl)c3Cl)c(N)n2)C[C@H]1CO (stereo partly drawn) [Compound 136, 1-((S)-4-(5-amino-6-(2,3-dichlorophenyl)-1,2,4-triazin-3-yl)-2-(hydroxymethyl)piperazin-1-yl)-3-(tert-butoxy)propan-2-ol] | 86.6 µM and 92.7 µM | > 200 µM | – | –
19 | COC[C@@H](O)CN1CCN(c2nnc(-c3cccc(Cl)c3Cl)c(N)n2)[C@H](CO)C1 [Compound 138, (S)-1-((S)-4-(5-amino-6-(2,3-dichlorophenyl)-1,2,4-triazin-3-yl)-3-(hydroxymethyl)piperazin-1-yl)-3-methoxypropan-2-ol] | > 300 µM | > 200 µM | – | –
20 | CC(C)(C)OCC(O)CN1CCN(c2nnc(-c3cccc(Cl)c3Cl)c(N)n2)[C@H](CO)C1 (stereo partly drawn) [Compound 139, 1-((S)-4-(5-amino-6-(2,3-dichlorophenyl)-1,2,4-triazin-3-yl)-3-(hydroxymethyl)piperazin-1-yl)-3-(tert-butoxy)propan-2-ol] | 103 µM | > 200 µM | – | –
21 | Nc1nc(N2CCN(CC(O)CO)C[C@H]2CO)nnc1-c1cccc(Cl)c1Cl (stereo partly drawn) [Compound 140, 3-((S)-4-(5-amino-6-(2,3-dichlorophenyl)-1,2,4-triazin-3-yl)-3-(hydroxymethyl)piperazin-1-yl)propane-1,2-diol] | – | – | > 300 µM | > 200 µM
22 | Nc1nc(N2CCNCC23CC3)nnc1-c1cccc(Cl)c1Cl [Compound 141, 6-(2,3-dichlorophenyl)-3-(4,7-diazaspiro[2.5]octan-4-yl)-1,2,4-triazin-5-amine] | 149 µM | > 200 µM | – | –
23 | CN(CCNC[C@H](O)C(F)(F)F)c1nnc(-c2cccc(Cl)c2Cl)c(N)n1 [Compound 147, (S)-3-((2-((5-amino-6-(2,3-dichlorophenyl)-1,2,4-triazin-3-yl)(methyl)amino)ethyl)amino)-1,1,1-trifluoropropan-2-ol] | < 50 µM | 151 µM and 179 µM | – | –
24 | CN(CCNc1nnc(-c2cccc(Cl)c2Cl)c(N)n1)C[C@H](O)C(F)(F)F [Compound 148, (S)-3-((2-((5-amino-6-(2,3-dichlorophenyl)-1,2,4-triazin-3-yl)amino)ethyl)(methyl)amino)-1,1,1-trifluoropropan-2-ol] | < 50 µM | 149 µM | – | –
25 | COCCOCCOCC(O)CNc1nnc(-c2cccc(Cl)c2Cl)c(N)n1 (centres unmarked) [Compound 153, 1-((5-Amino-6-(2,3-dichlorophenyl)-1,2,4-triazin-3-yl)amino)-3-(2-(2-methoxyethoxy)ethoxy)propan-2-ol] | > 300 µM | > 200 µM | – | –
26 | COC[C@@H](O)CN[C@@H]1CCN(c2nnc(-c3cccc(Cl)c3Cl)c(N)n2)C1 [Compound 159, (S)-1-(((R)-1-(5-amino-6-(2,3-dichlorophenyl)-1,2,4-triazin-3-yl)pyrrolidin-3-yl)amino)-3-methoxypropan-2-ol] | 289 µM | > 200 µM | – | –
27 | COC[C@@H](O)CN(C)CC1CN(c2nnc(-c3cccc(Cl)c3Cl)c(N)n2)C1 [Compound 160, (S)-1-(((1-(5-amino-6-(2,3-dichlorophenyl)-1,2,4-triazin-3-yl)azetidin-3-yl)methyl)(methyl)amino)-3-methoxypropan-2-ol] | 292 µM | > 200 µM | – | –
28 | COC[C@@H](O)CN1CCC12CCCN(c1nnc(-c3cccc(Cl)c3Cl)c(N)n1)C2 (stereo partly drawn) [Compound 161, (2S)-1-(6-(5-amino-6-(2,3-dichlorophenyl)-1,2,4-triazin-3-yl)-1,6-diazaspiro[3.5]nonan-1-yl)-3-methoxypropan-2-ol] | 51.4 µM | 147 µM | – | –
29 | COC[C@@H](O)CNC1(C)CCN(c2nnc(-c3cccc(Cl)c3Cl)c(N)n2)C1 (stereo partly drawn) [Compound 162, (2S)-1-((1-(5-amino-6-(2,3-dichlorophenyl)-1,2,4-triazin-3-yl)-3-methylpyrrolidin-3-yl)amino)-3-methoxypropan-2-ol] | 194 µM | > 200 µM | – | –
30 | COC[C@@H](O)CNC1CN(c2nnc(-c3cccc(Cl)c3Cl)c(N)n2)C1 [Compound 163, (S)-1-((1-(5-amino-6-(2,3-dichlorophenyl)-1,2,4-triazin-3-yl)azetidin-3-yl)amino)-3-methoxypropan-2-ol] | > 300 µM | > 200 µM | – | –
31 | CN1CCN(CCOCCNc2nnc(-c3cccc(Cl)c3Cl)c(N)n2)CC1 [Compound 169, 6-(2,3-dichlorophenyl)-N3-(2-(2-(4-methylpiperazin-1-yl)ethoxy)ethyl)-1,2,4-triazine-3,5-diamine] | > 300 µM | > 200 µM | – | –
32 | COCCNCCOCCNc1nnc(-c2cccc(Cl)c2Cl)c(N)n1 [Compound 173, 6-(2,3-dichlorophenyl)-N3-(2-(2-((2-methoxyethyl)amino)ethoxy)ethyl)-1,2,4-triazine-3,5-diamine] | 214 µM | > 200 µM | – | –
33 | CC(=O)NCCOCCNc1nnc(-c2cccc(Cl)c2Cl)c(N)n1 [Compound 175, N-(2-(2-((5-amino-6-(2,3-dichlorophenyl)-1,2,4-triazin-3-yl)amino)ethoxy)ethyl)acetamide] | > 300 µM | > 200 µM | – | –
34 | CS(=O)(=O)CCOCCNc1nnc(-c2cccc(Cl)c2Cl)c(N)n1 [Compound 176, 6-(2,3-dichlorophenyl)-N3-(2-(2-(methylsulfonyl)ethoxy)ethyl)-1,2,4-triazine-3,5-diamine] | 267 µM and 181 µM | > 200 µM | – | –
